# Key:
# [1] = test system: binding of ER to ELK1; experiment: SPR competition: inhibition of binding of ER (analyte) to immobilized ELK1; conditions: ER 200 nM, compound 0-32 uM
# Description: A fixed concentration of ER (200 nM) was combined with 5,3′-Dihydroxyflavone diluted in a series (0, 1, 2,4, 8, 16, and 32 uM).
# A fixed concentration of ER (200 nM) was combined with 5,3′-Dihydroxyflavone diluted in a series (0, 1, 2, 4, 8, 16, and 32 uM). […] This explains the ability of the compound to inhibit the estrogen-dependent growth of breast cancer cells, as ELK1 is required for estrogen-dependent growth of breast cancer cells.
# [2] = test system: HEK293 (adenovirus transformed kidney fibroblasts), AR-negative; experiment: Cell monolayer growth assay (MTT); format: cell-based
# Description: FIG. 12C is a graph showing the effect of KCI807 on in vitro growth of AR-negative cell line HEK293 cells measured by the MTT assay. All values were plotted relative to the Day zero value.
# Cells were trypsinized and 3000-4000 cells/well were seeded in 96-well plates coated with poly-D-lysine. The cells were seeded in phenol red-free medium supplemented with 10% FBS, 100 units/ml penicillin, 100 μg/ml streptomycin, 2 mM L-glutamine mixture and sodium pyruvate (1 mM) for LNCaP cells and phenol red-free medium supplemented with 10% FBS, 100 units/ml penicillin, 100 μg/ml streptomycin and 2 mM L-glutamine mixture for VCaP, 22Rv1, DU145, HeLa, HEK293 and H1650 cells. The cells were grown at 37° C. in 5% CO2. Twenty four hours after seeding in the 96-well plates, the cells were treated with the indicated concentration of KCI807 or DMSO (vehicle). The cells were re-treated on Day 3 by removing half the volume of medium and replacing it with fresh treated medium. Cell viability was determined using the MTT assay from day zero until day five. MTT (10 μL, 5 mg/mL) was added to each well and incubated for 2h at 37° C. The formazan crystal sediments were dissolved in 100 μL of DMSO, and the absorbance at 570 nm was measured using the BioTek Synergy 2 Microplate Reader (BioTek, Winooski, Vt.). The assay was conducted in sextuplicate wells and values were normalized to day zero.
# [3] = Metabolite identification in serum of treated mice by LC-MS/MS; format: in vivo, mouse; conditions: 250 mg/kg every other day
# From the text: To identify potential metabolites of KCI807 in mice, serum and liver samples collected from the control (untreated) and KCI807-treated mice were subjected to the LC-MS/MS analysis. Sample preparation and chromatographic separation were the same as that described above. Column eluents of the control and drug-treated samples were surveyed using different scan modes including full scan, product scan, and multiple reaction monitoring scan. […] The […] was operated under the optimized condition as for KCI807, and hypothesized theoretical mass transitions for potential metabolites were monitored (see Tables 3 and 4).
# If a chromatographic peak monitored at the theoretical transition(s) corresponding to a particular metabolite was identified in the drug-treated samples but not in the control (untreated) samples, this metabolite was identified as a metabolite of KCI807, see FIG. 20.
# Serum from mice that were injected with 250 mg/kg of 5,3′-Dihydroxyflavone every other day for two weeks was analyzed to identify potential metabolites by LCMS using hypothesized mass transitions. […]
smiles,measurement,setting,value
"O=c1cc(-c2cccc(O)c2)oc2cccc(O)c12 [KCI807, 5,3′-dihydroxyflavone]",inhibition of binding of ER to immobilized ELK1,[1],inhibits the binding of ER to ELK1
same,growth of HEK293 cells,[2],did not appreciably affect the growth
same,major metabolites / compounds identified in plasma or serum,[3],glucuronidation and other modifications at the 3′ position
same,major metabolites / compounds identified in plasma or serum,"[3]; listed as 5,3′-Dihydroxyflavone",Unmetabolized compound and a single glucuronide metabolite modified at the 3′-OH position

# — patent US11185527B2, “Methods and compositions relating to steroid hormone receptor-dependent cancers” (Wayne State University, priority 2017, dated 2021)
